Marks after values point to notes of the source that are not given here.
Experiments:
Assay type in all cases: in vivo, SD rats
[1] = test system: model of rats with acute exacerbation of chronic obstructive pulmonary disease; test: Pathological examination of lung tissue (HE staining; MLI, MAN, bronchial wall thickness); settings: dexamethasone 0.23 mg/kg/d gavage 7 days; x±SD, n=8
Procedure: The administration was started from the 2nd day of the 13th week. The same volume of purified water (10 ml/kg/d) was administered intragastrically to rats in the blank control group and the model control group, and the other groups were received high dose of phlegmyheatclear, middle dose of phlegmyheatclear, low dose of phlegmyheatclear, and dexamethasone once a day. All the rats were fasted within 12 hours before sampling of blood, however, the rats were allowed to free access to water. […] Then the rats were anesthetized by intraperitoneal injection of 10% 1.0 ml/100 g urethane. Exposed tracheal intubation was performed. […] The rat trachea and the whole lung were taken out by thoracotomy. […]

[2] = test system: model of rats with acute exacerbation of chronic obstructive pulmonary disease; test: Lung functions (animal pulmonary function test system); settings: dexamethasone 0.23 mg/kg/d gavage 7 days; x±SD, n=6-12
Source text: (§1) The rats were allowed to acclimate to their surroundings for 7 days since purchased from the specific company. The rats were fed sterilized feed and allowed to free access to sterilized water. Operators regularly checked purification and water and electricity operating system to keep a quite environment. 14 rats were selected to fall into a blank control group, and the remaining rats were subjected to cigarette smoking and repeatedly infected with Klebsiella pneumoniae (KP) to establish chronic obstructive pulmonary disease (COPD) stable-phase model of rats. The method comprises the steps of: light a cigarette, making smoke concentration reach 3000±500 ppm, twice a day. The rats took a rest for at least 3 hours between the two times of being exposed to cigarette smoking, lasting for a total of 12 weeks. From 1 to 8 weeks, model of rats were instilled KP suspension (6×10^8 CFU/ml) 0.1 ml through the nasal cavity every 5 days. Instillation via the nasal cavity: a sterilized 1 ml syringe was used to draw 0.1 ml of KP suspension; the KP suspension was instilled into the rats when the rats were breathing in, and the instillation process was done in either the left and right nostrils in an alternating way. Lipopolysaccharide (LPS) 2 mg/kg was instilled into the trachea on the first day of the 13th week to establish model of rats with acute exacerbation of chronic obstructive pulmonary disease. After successful modeling, the model of rats were randomly divided into five groups, including a model control group, a high dose of phlegmyheatclear group, a middle dose of phlegmyheatclear group, a low dose of phlegmyheatclear group, and a dexamethasone group, with 12 rats in each group.
The administration was started from the 2nd day of the 13th week. The same volume of purified water (10 ml/kg/d) was administered intragastrically to rats in the blank control group and the model control group, and the other groups were received high dose of phlegmyheatclear, middle dose of phlegmyheatclear, low dose of phlegmyheatclear, and dexamethasone once a day. All the rats were fasted within 12 hours before sampling of blood, however, the rats were allowed to free access to water. Blood samples were collected from caudal vein for CBC. Then the rats were anesthetized by intraperitoneal injection of 10% 1.0 ml/100 g urethane. Exposed tracheal intubation was performed. Changes of the pulmonary functions of the rats were detected by using an animal pulmonary function test system (PET). Blood was collected from the abdominal aorta, and the collected blood was placed for 2 hours and centrifuged to obtain the blood serum to detect the levels of inflammatory factors IL-6, IL-10, CRP and SAA. The rat trachea and the whole lung were taken out by thoracotomy. The right main bronchus was ligated, and the left bronchoalveolar lavage fluid (BALF) was drawn out to detect the level of inflammatory factor TNF-α; the left lung was perfused with 4% paraformaldehyde for 1 hour, and the left lung was directly fixed in the 4% paraformaldehyde for pathological examination.
Before sampling, the rats were anesthetized by intraperitoneal injection of 10% 1.0 ml/100 g urethane. Exposed tracheal intubation was performed. Relevant parameters of each rat were detected by using an animal pulmonary function test system (PET), wherein the parameters include forced vital capacity (FVC), forced expiratory volume at 0.1 s (FEV0.1), forced expiratory volume at 0.3 s (FEV0.3), maximum expiratory flow rate (PEF), mid-maximum expiratory flow (MMEF), functional residual capacity (FRC), and other parameters, changes in lung function (x±SD) of rats in each group are shown in Table 3.

[3] = test system: model of rats with acute exacerbation of chronic obstructive pulmonary disease; test: Complete blood count (peripheral blood inflammatory cells); settings: dexamethasone 0.23 mg/kg/d gavage 7 days, x±SD
Source text: as §1
The administration was started from the 2nd day of the 13th week. The same volume of purified water (10 ml/kg/d) was administered intragastrically to rats in the blank control group and the model control group, and the other groups were received high dose of phlegmyheatclear, middle dose of phlegmyheatclear, low dose of phlegmyheatclear, and dexamethasone once a day. All the rats were fasted within 12 hours before sampling of blood, however, the rats were allowed to free access to water. Blood samples were collected from caudal vein for CBC. Then the rats were anesthetized by intraperitoneal injection of 10% 1.0 ml/100 g urethane. Exposed tracheal intubation was performed. Changes of the pulmonary functions of the rats were detected by using an animal pulmonary function test system (PET). […]
Blood samples were collected from caudal vein for CBC, the following items were counted: the white blood cell count (WBC), the ratio of neutrophils (NEU %), the percentage of lymphocytes (% LYMPH) and the percentage of mononuclear cells (% MONO).

[4] = test system: model of rats with acute exacerbation of chronic obstructive pulmonary disease; test: Determination of serum CRP and SAA levels (ELISA); settings: dexamethasone 0.23 mg/kg/d gavage 7 days, x±SD, n=9-12
Source text: as §1, with “Lipopolysaccharide (LPS) 2 mg/kg was instilled into the trachea on the first day of the 13th week to establish model of rats with acute exacerbation of chronic obstructive pulmonary disease. After successful modeling, the model of rats were randomly divided into five groups, including a model control group, a high dose of phlegmyheatclear group, a middle dose of phlegmyheatclear group, a low dose of phlegmyheatclear group, and a dexamethasone group, with 12 rats in each group.” left out
The administration was started from the 2nd day of the 13th week. […] Changes of the pulmonary functions of the rats were detected by using an animal pulmonary function test system (PET). […]

[5] = test system: model of rats with acute exacerbation of chronic obstructive pulmonary disease; test: Determination of IL-6, IL-10 in serum and TNF-α in alveolar lavage fluid (ELISA); settings: dexamethasone 0.23 mg/kg/d gavage 7 days, n=10-12
Procedure: The administration was started from the 2nd day of the 13th week. The same volume of purified water (10 ml/kg/d) was administered intragastrically to rats in the blank control group and the model control group, and the other groups were received high dose of phlegmyheatclear, middle dose of phlegmyheatclear, low dose of phlegmyheatclear, and dexamethasone once a day. All the rats were fasted within 12 hours before sampling of blood, however, the rats were allowed to free access to water. […] Then the rats were anesthetized by intraperitoneal injection of 10% 1.0 ml/100 g urethane. Exposed tracheal intubation was performed. […]

## C[C@@H]1C[C@H]2[C@@H]3CCC4=CC(=O)C=C[C@]4(C)[C@@]3(F)[C@@H](O)C[C@]2(C)[C@@]1(O)C(=O)CO [Dexamethasone, dexamethasone]
[1]
  MAN (mean alveolar numbers): 330.49 ± 77.29 ↑/mm^2
  MLI (mean linear intercept): 47.24 ± 5.78 μm
  Wt (bronchial wall thickness): 16.6 ± 4.01 µm
[2]
  FEV0.1 (forced expiratory volume at 0.1 s): 5.31 ± 2.90 mL
  FEV0.3 (forced expiratory volume at 0.3 s): 15.06 ± 2.84 ^b mL
  FRC (functional residual capacity): 4.37 ± 1.48 mL
  FVC (forced vital capacity): 16.33 ± 2.01^bb mL
  MMEF (mid-maximum expiratory flow): 78.6 ± 29.1 mL/s
  PEF (maximum expiratory flow rate): 81.57 ± 29.43 mL/S
[3]
  LYM (percentage of lymphocytes): 82.15 ± 15.32%
  MONO (percentage of mononuclear cells): 0.61 ± 0.25^b %
  NEU (ratio of neutrophils): 16.57 ± 14.99%
  WBC (white blood cell count): 3.80 ± 1.53^bb *10^9/L
[4]
  CRP: 3420.23 ± 1254.10^bb ng/mL
  SAA: 19.18 ± 6.18^bb μg/mL
[5]; alveolar lavage fluid (BALF)
  TNF-α: 325.52 ± 49.51^bb pg/mL
[5]; serum
  IL-6: 507.54 ± 185.62^bb pg/mL
  IL-10: 40.65 ± 6.31 ^ pg/mL

Reference: US20220008495A1, “APPLICATION OF PHLEGMYHEATCLEAR IN PREPARATION OF DRUG FOR TREATMENT OF ACUTE EXACERBATION OF CHRONIC OBSTRUCTIVE PULMONARY DISEASE” (SHANGHAI KAIBAO PHARMACEUTICAL CO., LTD., priority 2020, published 2022)
